Source: PMC11992225, “Antibacterial compounds against non-growing and intracellular bacteria” (npj Antimicrobials and Resistance, 2025)
Values joined by “and” are separate entries in the source; they are usually repeats but may differ in a detail not shown here. Equal values may be shown once.

Key:
non-growing UPEC CFT073 = assay: Dose-dependent killing analysis (CFU spot-plating) of stationary-phase UPEC; type: cell-based, Escherichia coli
In short: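 Non-growing (stationary-phase) UPEC CFT073 treated with compounds in 96-well format at 200 μl, then 10-fold serially diluted in PBS and 10 μl spots plated on LB agar. Plates incubated overnight at 37 °C; colonies counted at lowest resolvable dilution to give CFU. Three biological replicates.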

[1] = system: non-growing S. aureus DSM2569; assay: Dose-dependent killing analysis (CFU spot-plating) of stationary-phase S. aureus; type: cell-based, Staphylococcus aureus; conditions: S. aureus; for Killing: average Δlog10(CFU/ml): vs 9,097 before treatment
In short: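 Stationary-phase S. aureus DSM2569 was grown and treated for 24 h in 1:4 CA-MHB at pH 7.4. Treated samples were serially diluted 10-fold in PBS and spot-plated on LB agar, which was incubated overnight at 37 °C. Survivors were counted as CFU over three biological replicates.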

[2] = system: non-growing S. aureus DSM2569; assay: Dilution-regrowth assay (OD600, start-growth-time) on stationary-phase S. aureus; type: cell-based, Staphylococcus aureus; conditions: S. aureus; for Regrowth: OD600 after dilution into drug-free medium (mean): OD600 at 6h or 8h
In short: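 Stationary-phase S. aureus cultures were grown and exposed to compound for 24 h in 1:4 CA-MHB (pH 7.4) at 37 °C in 96-well plates with 200 μl volume. After dilution into drug-free medium, regrowth was tracked in a plate reader at 37 °C with continuous shaking, reading OD600 every 20 min; EC50 came from five-parameter logistic fitting.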

SMILES: CO[C@H]1/C=C/O[C@@]2(C)Oc3c(C)c(O)c4c(O)c(c(/C=N/N=C/N5CCCCC5)c(O)c4c3C2=O)NC(=O)/C(C)=C\C=C\[C@H](C)[C@H](O)[C@@H](C)[C@@H](O)[C@@H](C)[C@H](OC(C)=O)[C@@H]1C [FCE-22250]
- log10(CFU/ml) after treatment, single replicates (non-growing UPEC CFT073; E. coli in 1:4 CA-MHB (pH 7.4), concentration 0.25): 9.301 log10(CFU/ml) and 8.845 log10(CFU/ml) and 8.602 log10(CFU/ml)
- Killing: average Δlog10(CFU/ml) (non-growing UPEC CFT073; E. coli in 1:4 CA-MHB (pH 7.4), concentration 0.25, vs 8.977 before treatment): 0.061 log10(CFU/ml)
- log10(CFU/ml) after treatment, single replicates (non-growing UPEC CFT073; E. coli in 1:4 CA-MHB (pH 7.4), concentration 0.5): 9.505 log10(CFU/ml) and 9.176 log10(CFU/ml) and 8.301 log10(CFU/ml)
- Killing: average Δlog10(CFU/ml) (non-growing UPEC CFT073; E. coli in 1:4 CA-MHB (pH 7.4), concentration 0.5, vs 8.977 before treatment): -0.017 log10(CFU/ml)
- log10(CFU/ml) after treatment, single replicates (non-growing UPEC CFT073; E. coli in 1:4 CA-MHB (pH 7.4), concentration 1): 9.556 log10(CFU/ml) and 9.114 log10(CFU/ml) and 8.431 log10(CFU/ml)
- Killing: average Δlog10(CFU/ml) (non-growing UPEC CFT073; E. coli in 1:4 CA-MHB (pH 7.4), concentration 1, vs 8.977 before treatment): -0.057 log10(CFU/ml)
- log10(CFU/ml) after treatment, single replicates (non-growing UPEC CFT073; E. coli in 1:4 CA-MHB (pH 7.4), concentration 2.5): 9.415 log10(CFU/ml) and 8.954 log10(CFU/ml) and 8.342 log10(CFU/ml)
- Killing: average Δlog10(CFU/ml) (non-growing UPEC CFT073; E. coli in 1:4 CA-MHB (pH 7.4), concentration 2.5, vs 8.977 before treatment): 0.073 log10(CFU/ml)
- log10(CFU/ml) after treatment, single replicates (non-growing UPEC CFT073; E. coli in 1:4 CA-MHB (pH 7.4), concentration 5): 9.477 log10(CFU/ml) and 8.903 log10(CFU/ml) and 8.431 log10(CFU/ml)
- Killing: average Δlog10(CFU/ml) (non-growing UPEC CFT073; E. coli in 1:4 CA-MHB (pH 7.4), concentration 5, vs 8.977 before treatment): 0.040 log10(CFU/ml)
- log10(CFU/ml) after treatment, single replicates (non-growing UPEC CFT073; E. coli in 1:4 CA-MHB (pH 7.4), concentration 10): 9.519 log10(CFU/ml) and 8.845 log10(CFU/ml) and 8.778 log10(CFU/ml)
- Killing: average Δlog10(CFU/ml) (non-growing UPEC CFT073; E. coli in 1:4 CA-MHB (pH 7.4), concentration 10, vs 8.977 before treatment): -0.070 log10(CFU/ml)
- log10(CFU/ml) after treatment, single replicates (non-growing UPEC CFT073; E. coli in LPM (pH 5.5), concentration 0.25): 7.041 log10(CFU/ml) and 7.176 log10(CFU/ml) and 8.079 log10(CFU/ml)
- Killing: average Δlog10(CFU/ml) (non-growing UPEC CFT073; E. coli in LPM (pH 5.5), concentration 0.25, vs 7.350 before treatment): -0.082 log10(CFU/ml)
- log10(CFU/ml) after treatment, single replicates (non-growing UPEC CFT073; E. coli in LPM (pH 5.5), concentration 0.5): 6.845 log10(CFU/ml) and 6.778 log10(CFU/ml) and 8.000 log10(CFU/ml)
- Killing: average Δlog10(CFU/ml) (non-growing UPEC CFT073; E. coli in LPM (pH 5.5), concentration 0.5, vs 7.350 before treatment): 0.143 log10(CFU/ml)
- log10(CFU/ml) after treatment, single replicates (non-growing UPEC CFT073; E. coli in LPM (pH 5.5), concentration 1): 7.176 log10(CFU/ml) and 7.255 log10(CFU/ml) and 8.000 log10(CFU/ml)
- Killing: average Δlog10(CFU/ml) (non-growing UPEC CFT073; E. coli in LPM (pH 5.5), concentration 1, vs 7.350 before treatment): -0.127 log10(CFU/ml)
- log10(CFU/ml) after treatment, single replicates (non-growing UPEC CFT073; E. coli in LPM (pH 5.5), concentration 2.5): 6.845 log10(CFU/ml) and 6.954 log10(CFU/ml) and 7.845 log10(CFU/ml)
- Killing: average Δlog10(CFU/ml) (non-growing UPEC CFT073; E. coli in LPM (pH 5.5), concentration 2.5, vs 7.350 before treatment): 0.136 log10(CFU/ml)
- log10(CFU/ml) after treatment, single replicates (non-growing UPEC CFT073; E. coli in LPM (pH 5.5), concentration 5): 6.778 log10(CFU/ml) and 6.845 log10(CFU/ml) and 7.785 log10(CFU/ml)
- Killing: average Δlog10(CFU/ml) (non-growing UPEC CFT073; E. coli in LPM (pH 5.5), concentration 5, vs 7.350 before treatment): 0.214 log10(CFU/ml)
- log10(CFU/ml) after treatment, single replicates (non-growing UPEC CFT073; E. coli in LPM (pH 5.5), concentration 10): 6.954 log10(CFU/ml) (2×) and 7.531 log10(CFU/ml)
- Killing: average Δlog10(CFU/ml) (non-growing UPEC CFT073; E. coli in LPM (pH 5.5), concentration 10, vs 7.350 before treatment): 0.204 log10(CFU/ml)
- log10(CFU/ml) after treatment, single replicates ([1]; concentration 0.1): 9.505 log10(CFU/ml) and 8.903 log10(CFU/ml) and 9.033 log10(CFU/ml)
- Killing: average Δlog10(CFU/ml) ([1]; concentration 0.1): -0.050 log10(CFU/ml)
- log10(CFU/ml) after treatment, single replicates ([1]; concentration 0.5): 9.107 log10(CFU/ml) and 9.017 log10(CFU/ml) and 8.505 log10(CFU/ml)
- Killing: average Δlog10(CFU/ml) ([1]; concentration 0.5): 0.221 log10(CFU/ml)
- log10(CFU/ml) after treatment, single replicates ([1]; concentration 2.5): 8.929 log10(CFU/ml) and 8.940 log10(CFU/ml) and 8.806 log10(CFU/ml)
- Killing: average Δlog10(CFU/ml) ([1]; concentration 2.5): 0.205 log10(CFU/ml)
- log10(CFU/ml) after treatment, single replicates ([1]; concentration 10): 8.973 log10(CFU/ml) and 9.017 log10(CFU/ml) and 8.944 log10(CFU/ml)
- Killing: average Δlog10(CFU/ml) ([1]; concentration 10): 0.119 log10(CFU/ml)
- Regrowth: OD600 after dilution into drug-free medium (mean) ([2]; concentration 0.1): 0.461
- Regrowth: OD600 after dilution into drug-free medium (mean) ([2]; concentration 0.5): 0.312
- Regrowth: OD600 after dilution into drug-free medium (mean) ([2]; concentration 2.5): 0.178
- Regrowth: OD600 after dilution into drug-free medium (mean) ([2]; concentration 10): 0.092
- EC50 ([2]; regrowth delay of non-growing bacteria, 1:4 CA-MHB pH 7.4, 24 h treatment, OD600 8 h after dilution, read-out: EC50): 278 nM
